In paper PMC10945559, “Forgotten Natural Products: Semisynthetic Development of Blasticidin S As an Antibiotic Lead” (ACS Medicinal Chemistry Letters, 2024):
In brackets after ≈: the same amount, converted by molar mass. Like-named read-outs stand apart in the source and are kept apart here.

Assays:
in vitro = format: cell-based, human; conditions: human; MRC-5 (lung fibroblast); 24 h; one biological replicate (n = 3); read-out: CC50 for human cells
Procedure: (§1) as a range from biological replicates. Inhibition curves were generated using Prism (GraphPad).
(§2) The IC50 values reported in Table 2 are the average of the two biological replicates ± standard […]
(§3) Cytotoxicity Assay Procedure
(§4) Human lung fibroblast cells, MRC -5 (CCL-171), were cultured at 37℃ with 5% CO2 and were plated at 5000 cells/well in a 96 -well plate. Compounds 1, 2, and 15-22 were initially prepared at concentrations of 5.12 mg/mL in a vehicle of 50% DMSO. Dilutions of the compounds (4 – 512 μg/mL) were then prepared in growth medium containing Dulbecco’s modified Eagle’s medium (DMEM) with high glucose, L -glutamine, and sodium pyruvate supplemented with 10% fetal bovine serum (FBS), 1% non -essential amino acids, and 0.1% gentamicin sulfate, and 25mM HEPES. The vehicle (50% DMSO) was also prepared via the sa me dilution series to serve as a control. Growth media was removed from the cells and replaced with the same volume of each compound dilution. Cells were incubated for 24 h , after which CellTiter 96® AQueous One Solution Reagent was added to each well as recommended by the manufacturer’s protocol (Promega CellTiter 96 AQueous One Solution Cell Proliferation Assay) and further incubated for 4 h. After incubation, absorbance was measured at 490 nm on an Infinite M plex multimode microplate reader with i -control Tecan software. Viability was calculated by subtracting media only absorbance values and normalizing to the vehicle control at each concentration. The presented data is one assay performed in triplicate that is representative of multiple trials. Data for the 256 and 512 μg/mL concentrations were removed from analysis due to vehicle toxicity […]
(§5) CC50 concentrations were determined via the ED50 Plus v1.0 software (https://archive.org/details/ed50v10_zip).
(§6) Figure S41. The effect of compounds on cell viability. The lines represent non -linear regression curves, and error bars represent means ± […]
(§7) SD (n=3). […]

[1] = tested on: MRC-5 lung fibroblast cells; assay: in vitro; format: cell-based, human; conditions: average of SI (CC50/IC50) over the bacteria tested
Procedure: as §1, §2, §3, §4, §5, §6, §7

[2] = tested on: methicillin-resistant S. aureus (MRSA) ATCC 43300; assay: Broth microdilution antibacterial assay; format: cell-based, Staphylococcus aureus
Procedure: (§8) Antibacterial Assay Procedure
(§9) Broth Microdilution Assays
(§10) Media and solutions were autoclaved or sterile filtered prior to use and manipulations were carried out in a laminar flow hood. Antibacterial testing was performed in polypropylene 96 -well flat bottom plates. The minimal inhibitory concentration of blasticidin S ( 1) hydrochloride, P10 (2), and derivatives 15–22 were assessed against Staphylococcus aureus ΔNorA, S. aureus 8810, methicillin-resistant S. aureus (MRSA) ATCC 43300, Enterococcus faecalis ATCC 29212, vancomycin-resistant Enterococcus, Klebsiella pneumoniae ATCC 29665, Pseudomonas aeruginosa, and Acinetobacter baumannii ATCC 17978 using serial dilutions. Doxycycline (Gold Bio) as a positive control and the vehicle as a negative control. Stock solutions of each compound were prepared at 5.12 mg/mL in 50% DMSO/water and serially diluted in 50% DMSO/water to create master plates. From the master plates, 10 μL of each dilution was applied to test plates using a Bravo automated liquid transfer system (Agilent). Bacteria previously grown overnight (37 °C, 120 – 200 RPM), in LB broth were diluted to an OD600 of 0.0 5 in cation-adjusted Mueller-Hinton broth, grown to an OD600 of ~0.5, and diluted to an OD600 of 0.004 in cation-adjusted Mueller-Hinton broth. These diluted cultures were applied to the test plates (190 μL per test well) resulting in final concentrations of the test compounds of 256–2 μg/mL. Growth controls (wells with inoculated media but no vehicle or test compounds) were included to assess any potential toxicity from the vehicle. The plates were incubated at 37 °C for 16–18 h, except for VRE and E. faecalis, which were incubated at 37 °C for 24 h. Inhibition was determined by measuring the optical density at 600 nm (OD600) with a Cytation 3 plate reader (BioTek). The optical density measurements were normalized to the positive and negative controls and the vehicle and growth controls were compared and found to be indistinguishable, indicating no toxicity from the vehicle used. The MIC was the lowest concentration that inhibited >90% of growth. Two biological replicates were performed in duplicate. MIC values are reported […]
as §1, §2, §3, §4, §5

S. aureus 8810 = assay: Broth microdilution antibacterial assay; format: cell-based, Staphylococcus aureus
Procedure: as §8, §9, §10, §1, §2, §3, §4, §5

[3] = design: method as in PMID 5842139; conditions: cited from earlier work
[4] = tested on: Acinetobacter baumannii ATCC 17978; assay: Broth microdilution antibacterial assay; format: cell-based
Procedure: as §8, §9, §10, §1, §2, §3, §4, §5

Pseudomonas aeruginosa = assay: Broth microdilution antibacterial assay; format: cell-based
Procedure: as §8, §9, §10, §1, §2, §3, §4, §5

[5] = tested on: Klebsiella pneumoniae ATCC 29665; assay: Broth microdilution antibacterial assay; format: cell-based
Procedure: as §8, §9, §10, §1, §2, §3, §4, §5

[6] = tested on: Enterococcus faecalis ATCC 29212; assay: Broth microdilution antibacterial assay; format: cell-based
Procedure: as §8, §9, §10, §1, §2, §3, §4, §5

[7] = tested on: Staphylococcus aureus ΔNorA; assay: Broth microdilution antibacterial assay; format: cell-based
Procedure: as §8, §9, §10, §1, §2, §3, §4, §5

[8] = tested on: vancomycin-resistant Enterococcus (VRE); assay: Broth microdilution antibacterial assay; format: cell-based
Procedure: as §8, §9, §10, §1, §2, §3, §4, §5

[9] = Acinetobacter baumannii, ATCC17978
[10] = Klebsiella pneumoniae, ATCC29665

## CN(CC[C@H](N)CC(=O)N[C@H]1C=C[C@H](n2ccc(N)nc2=O)O[C@@H]1C(=O)O)C(=N)N [Compound 1, blasticidin S]
In vitro
  CC50 at 24 h: 20.1 µg/mL (≈ 47.6 µM)
[1]
  average selectivity index: 0.4
[2]; MRC-5 CC50 / MRSA IC50
  Selectivity index (CC50/IC50): 0.3
[2]; Staphylococcus aureus
  IC50: 59.7 ± 7.8 µg/mL (≈ 141 µM)
  MIC: 256 µg/mL (≈ 606 µM)
[2]; Staphylococcus aureus, read-out: Average Activity against MRSA
  MIC: 256 µg/mL (≈ 606 µM)
S. aureus 8810; MRC-5 CC50 / S. aureus IC50
  Selectivity index (CC50/IC50): 0.6
S. aureus 8810; Staphylococcus aureus, 8810
  IC50: 33.2 ± 0.8 µg/mL (≈ 78.6 µM)
  MIC: > 256 µg/mL
S. aureus 8810; Staphylococcus aureus, 8810, read-out: Average Activity against S. aureus
  MIC: > 256 µg/mL
[3]; primary amine
  pKa: 8.0
[3]; protonated guanidine
  pKa: > 12.5
[4]; [9]
  IC50: 104 ± 25 µg/mL (≈ 246 µM)
  MIC: > 256 µg/mL
[4]; MRC-5 CC50 / A. baumannii IC50
  Selectivity index (CC50/IC50): 0.2
Pseudomonas aeruginosa; MRC-5 CC50 / P. aeruginosa IC50
  Selectivity index (CC50/IC50): 0.3
Pseudomonas aeruginosa; Pseudomonas aeruginosa
  IC50: 61 ± 6 µg/mL (≈ 144 µM)
  MIC: 256 µg/mL (≈ 606 µM)
[5]; [10]
  IC50: 42.3 ± 3.5 µg/mL (≈ 100 µM)
  MIC: 128 µg/mL (≈ 303 µM)
[5]; MRC-5 CC50 / K. pneumoniae IC50
  Selectivity index (CC50/IC50): 0.5
[6]; Enterococcus faecalis, ATCC29212
  IC50: 26.3 ± 13 µg/mL (≈ 62.3 µM)
[6]; Enterococcus faecalis, ATCC29212, 24 h
  MIC: 32 to 64 µg/mL (≈ 75.7 to 151 µM)
[6]; Enterococcus faecalis, ATCC29212, read-out: Average Activity against E. faecalis
  MIC: 64 µg/mL (≈ 151 µM)
[6]; MRC-5 CC50 / E. faecalis IC50
  Selectivity index (CC50/IC50): 0.8
[7]; MRC-5 CC50 / S. aureus ΔNorA IC50
  Selectivity index (CC50/IC50): 0.1
[7]; Staphylococcus aureus
  IC50: 140 ± 8.7 µg/mL (≈ 331 µM)
  MIC: > 256 µg/mL
[8]; Enterococcus, VRE
  IC50: 58 ± 9.4 µg/mL (≈ 137 µM)
[8]; Enterococcus, VRE, 24 h
  MIC: 256 µg/mL (≈ 606 µM)
[8]; Enterococcus, VRE, read-out: Average Activity against VRE
  MIC: 256 µg/mL (≈ 606 µM)
[8]; MRC-5 CC50 / VRE IC50
  Selectivity index (CC50/IC50): 0.3
